Square brackets hold non-standard residues; d marks the D form. Peptide text beside a SMILES is read from it. Sar = CNCC(=O)O
Target: T1, canine PepT1 (cPepT1) (Canis lupus familiaris, UniProt Q8WMX5)
T1 construct: endogenous in cells; host or cells: MDCK (Madin-Darby Canine Kidney) cells, whole-cell [3H]-GlySar uptake
T1 sequence (Q8WMX5 1-708): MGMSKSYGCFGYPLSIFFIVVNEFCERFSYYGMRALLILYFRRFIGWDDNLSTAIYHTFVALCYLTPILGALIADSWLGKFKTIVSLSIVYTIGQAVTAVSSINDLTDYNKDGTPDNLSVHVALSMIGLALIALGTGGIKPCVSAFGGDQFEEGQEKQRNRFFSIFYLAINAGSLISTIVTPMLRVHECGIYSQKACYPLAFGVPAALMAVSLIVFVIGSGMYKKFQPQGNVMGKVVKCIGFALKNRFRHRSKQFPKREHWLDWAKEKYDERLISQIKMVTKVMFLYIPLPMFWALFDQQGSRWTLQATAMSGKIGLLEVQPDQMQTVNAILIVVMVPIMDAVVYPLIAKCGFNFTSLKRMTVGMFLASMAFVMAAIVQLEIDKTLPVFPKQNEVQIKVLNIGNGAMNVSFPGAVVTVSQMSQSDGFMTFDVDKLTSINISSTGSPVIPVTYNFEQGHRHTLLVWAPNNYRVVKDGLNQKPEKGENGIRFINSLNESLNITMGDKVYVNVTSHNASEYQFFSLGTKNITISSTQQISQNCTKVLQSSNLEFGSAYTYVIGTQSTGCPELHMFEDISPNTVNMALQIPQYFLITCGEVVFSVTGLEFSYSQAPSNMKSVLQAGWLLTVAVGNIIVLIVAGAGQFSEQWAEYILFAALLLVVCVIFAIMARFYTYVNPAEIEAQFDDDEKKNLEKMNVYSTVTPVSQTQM
Experiment: Characterization of GlySar uptake by MDCK cells (Km, pH gradient, time course)
Assay type: cell-based
Conditions: for GlySar uptake in pH 6.0 buffer relative to pH 7.4 buffer: 100 μM GlySar
Experimental: Potential expression of PepT1 transport activity (H^+-dependent, dipeptide inhibitable, low-affinity dipeptide transport) by confluent MDCK cells was evaluated using whole-cell transport techniques and glycylsarcosine (GlySar) as a model dipeptide substrate. Cells were seeded at 60,000 cells/cm^2 into 24-well trays that had been coated with rat tail collagen or poly-L-lysine and cultured ([…]:5% CO2 at 37° C.) for 3 d in media consisting of Dulbecco's Modified Eagle Medium/10% fetal calf serum/1% antimicrobial antibacterial medium. Absorption (pmols/mg protein) of [^3H]-glycyl-L-sarcosine (GlySar, 6 mCi/mL, Moravek Biochemicals, Brea, Calif.) was determined using the 24-well cluster tray method and representative scintillation counting. Before transport, cells were incubated at 37° C. for 30 min in 25 mM Hepes/Tris (pH 7.5), 140 mM NaCl, 5.4 mM KCl, 1.8 mM CaCl2, 0.8 mM MgSO4, and 5 mM glucose (uptake buffer) to normalize intracellular amino acid and peptide pools. Transport was initiated by the addition of 0.25 mL of uptake buffer that contained 2.88 μm GlySar. After 30 min of uptake at 37° C., transport was terminated by rapid washing of cells with 4×2 mL 4° C. uptake buffer. Cellular protein was precipitated with 10% trichloroacetic acid and the supernatant recovered and counted to determine radioactivity (^3H) content. Cellular protein was then solubilized in 0.2 N NaOH and 0.2% SDS and quantified by the Lowry procedure, using bovine serum albumin as a standard. The amount of H^+-dependent GlySar absorbed was calculated as the difference between uptake in pH 6.0 and pH 7.5 uptake buffers. The amount of competitor substrate-inhibitable GlySar uptake was calculated as the quotient of GlySar uptake in the absence and presence of 10 mM competitor substrate (dipeptide or amino acid) multiplied by 100%.
To preliminarily characterize the kinetic parameters of peptide transport by MDCK cells, the uptake of GlySar in media that contained pH 6.0 and 0.00064, 0.0025, 0.010, 0.04, 0.160, 0.640, 2.56, or 10.2 mM of GlySar was measured (FIG. 6). […] Collectively, these characteristics of GlySar uptake are consistent with functional activity of PepT1 expressed by other species, as opposed to high-affinity, H^+-dependent uptake by PepT2 (μm Km).
Using the maximal uptake-stimulating culture parameters determined in Experiment 3, the effect of an extracellular-to-intracellular pH gradient on GlySar uptake was further evaluated to determine a pH level at which maximal GlySar uptake could be achieved, but which would replicate physiologic conditions (FIG. 10). As expected, the presence of a pH gradient stimulated (P<0.001) H^+-dependent GlySar uptake, in a quadratic (P<0.01) fashion. Uptake at pH 5.5 or 6.0 was about 2.7 times greater than that achieved at pH 7.5. […] Accordingly, the use pH 6.0 buffers for the characterization of H^+-dependent GlySar uptake was incorporated into the standard experimental conditions.
To determine the appropriate time period to measure initial (linear) rates of GlySar uptake, a by-minute time-course experiment was performed. […] GlySar uptake in pH 6.0 buffer at 3.75, 7.5, 15, 30, 60 and 120 min was about 2, 2.1, 2.25, 2.65, 2.79, and 2.62 times more (P<0.001), respectively, than uptake from pH 7.4 buffer. Because uptake was proportional to time of uptake through 1 h, future experiments were conducted using a 30-min time period.
To confirm that H^+-dependent GlySar uptake was saturable, and therefore mediated, the uptake of GlySar from pH 6.0 and 7.4 uptake buffers containing 0.025, 0.1, 0.4, 1.6, 6.4, or 25.6 mM GlySar was evaluated (FIG. 12). Uptake of GlySar was greatest (P<0.001) from the pH 6.0 buffers, at all concentrations.

H+-dependent GlySar uptake at pH 5.5 or 6.0 relative to pH 7.5 (2.88 μM GlySar, LHM 2 days (FIG. 10)): about 2.7 times | GlySar uptake in pH 6.0 buffer relative to pH 7.4 buffer (3.75 min): about 2 times | GlySar uptake in pH 6.0 buffer relative to pH 7.4 buffer (7.5 min): ~2.1 times | GlySar uptake in pH 6.0 buffer relative to pH 7.4 buffer (15 min): ~2.25 times | GlySar uptake in pH 6.0 buffer relative to pH 7.4 buffer (30 min): ~2.65 times | GlySar uptake in pH 6.0 buffer relative to pH 7.4 buffer (60 min): ~2.79 times | GlySar uptake in pH 6.0 buffer relative to pH 7.4 buffer (120 min): ~2.62 times | GlySar uptake at extracellular pH 6.0 relative to pH 7.5 medium (cells grown on poly-L-lysine): 1.7 fold | GlySar uptake at extracellular pH 6.0 relative to pH 7.5 medium (cells plated on collagen): 2.3 fold
Structure (SMILES): CN(CC(=O)O)C(=O)CN [GlySar, glycylsarcosine] (H-Gly-[Sar]-OH)

— US6803186B2, “Compositions and methods for increasing amino acid absorption in mammals” (The IAMS Company, priority 2001, dated 2004)
